Assays:
[1] = test system: Mouse embryonic fibroblast cells (MEFs); assay: Viability of proliferating or senescent mouse embryonic fibroblasts (DAPI/PI staining); type: cell-based; conditions: 4 days
Protocol: Mouse embryonic fibroblast cells were incubated with 300 nM doxorubicin for 24 hrs to induce senescence. Cells were washed and after incubation in media for 7 days, senescence was confirmed by staining for SA-β-Gal (Itahana et al., Methods Mol. Biol. 371 (2007) 21-31) and lack of incorporation of 5-ethynyl-2′-deoxyuridine (EdU) (see Yu et al., J. Immunol. Methods 350 (2009) 29-35).
Proliferating or senescent MEFs were treated with increasing concentrations of either FURGal (101) or 5-fluorouridine (FUR) (102) for 4 days. Cells were washed and stained with 4′,6-diamidino-2-phenylindole (DAPI) and propidium iodide (PI) and the fraction of viable cells was assessed from the ratio of PI-positive nuclei over PI-negative nuclei.

[2] = test system: Normal human fibroblasts (IMR90); assay: Compound toxicity towards normal proliferative, senescent or quiescent fibroblasts (XTT cell viability assay); type: cell-based; conditions: IC50 against normal, proliferating cells divided by IC50 versus senescent (doxorubicin-induced) cells, three days treatment
Protocol: Normal human fibroblasts (IMR90) and patient-derived β-galactosidase (GLB1) or α-fucosidase (FUCA1) deficient cells were used to determine change in cell viability after exposure to compound. Cells were cultured with DMEM and 10% heat inactivated FBS under a controlled atmosphere of 5% carbon dioxide and 5% oxygen, […] and confirmed by the absence of senescence associated β-galactosidase (SA-β-Gal) staining and the capacity to re-enter the cell cycle. Senescence was induced by treatment with doxorubicin and confirmed by SA-β-Gal positive staining and the lack of DNA replication. Cells were treated with compound for three days. Cell viability was determined by mitochondrial dehydrogenase activity (XTT assay. Cayman Chemical) at ten concentrations of the tested compound. To generate dose-response curves, data was fitted to a four-parameter Hill function and the IC50 was determined at Y=0.5 viability. The senolytic index (S.I.) for each compound was determined by dividing the IC50 against normal, proliferating cells by the IC50 versus senescent cells. Senolytic index data is shown in Table 1 with compounds having S.I.<1 (−), S.I>1 (+), S.I.>5 (++) and S.I>10 (+++).

[3] = test system: senescent C57BL/6 mouse hepatocytes; assay: Effect of FURGal on doxorubicin-induced senescent hepatocytes after in vivo administration; conditions: doxorubicin 25 mg/kg i.p.; FURGal 140 mg/kg 4 and 6 days later; livers after additional 4 days; FIG. 3C
Protocol: Two groups of C57BL/6 mice (N=5/group) were injected intraperitoneally with doxorubicin (25 mg/kg) to induce hepatocellular senescence. 4 and 6 days later groups were injected with PBS or FURGal (140 mg/kg) (101). A third group of 5 animals served as controls. After an additional 4 days livers were removed and sectioned (30 μm) before staining for SA-β-Gal (6 fields/animal were assessed) (FIGS. 3A and 3B).

[4] = test system: C57BL/6 mice; assay: Comparative toxicity of FURGal and FUR to C57BL/6 mice; type: in vivo; conditions: six days after treatment
Protocol: Equimolar doses of (101)(160 mg/kg) and (102) (100 mg/kg) were administered by single dose intraperitoneal injection to 2 groups of mice (N=3 each). Six days after treatment blood cell counts were determined by standard methods (FIG. 2A), bone marrow cells from femur were counted (FIG. 2B) and spleen weights (FIG. 2C) determined to compare the toxicity of the two drugs.

[5] = test system: senescent lung cells in C57BL/6 mice; assay: Senolytic effect of compound (119) on doxorubicin-induced senescent lung cells after in vivo administration; design: species or system mouse
Protocol: Four groups of C57BL/6 mice (N=9/group) were injected intravenously with doxorubicin (15 mg/kg) to induce senescence in lung tissue. Five days later groups were injected with vehicle or compound (119) (aka RBO-019) (10, 20 or 40 mg/kg i.v.). After an additional 3 days lungs were removed and the left lobes sectioned before staining for SA-β-Gal as previously described (FIGS. 5A and 5B). […] This senolytic effect was also corroborated by using quantitative PCR to detect mRNA levels of Cdkn2a (p16^INK4a). Expression levels were reported relative to Actb as the reference gene.

[6] = compared with seco product (78); Tietze et al.; cited from earlier work

| SMILES | toxicity towards senescent MEFs ([1]; doxorubicin-induced senescent MEFs, FIG. 1B) | cell viability / toxicity towards proliferating cells ([1]; proliferating MEFs, increasing concentrations (as high as 4 mM), FIG. 1A) | Senolytic Index (S.I.) [2] | senescent hepatocytes (SA-β-Gal staining of liver sections) [3] | toxicity towards platelets, neutrophils, lymphocytes and bone marrow cells ([4]; equimolar single i.p. dose: (101) 160 mg/kg, (102) 100 mg/kg, FIG. 2A, 2B) | effects on spleen weight ([4]; single i.p. dose 160 mg/kg, in comparison to FUR (102) 100 mg/kg, FIG. 2C) | SA-β-Gal staining in lung sections ([5]; doxorubicin 15 mg/kg i.v., 10, 20 or 40 mg/kg i.v. five days later, lungs after additional 3 days, FIG. 5C) | Cdkn2a gene expression in lung ([5]; quantitative PCR, relative to Actb, 10, 20 or 40 mg/kg i.v., FIG. 5D) | fold less cytotoxic than hydrolyzed seco product (78) [6] |
| --- | --- | --- | --- | --- | --- | --- | --- | --- | --- |
| O=c1[nH]c(=O)n([C@@H]2O[C@H](CO[C@@H]3O[C@H](CO)[C@H](O)[C@H](O)[C@H]3O)[C@@H](O)[C@H]2O)cc1F [(101), 5-fluorouridine-5′-O-β-D-galactopyranoside] | equitoxic | completely non-toxic | +++ (S.I>10 (+++)) | numerical trend for a reduction | negligible toxicity | minimal effects | – | – | – |
| CC(=O)O[C@H]1[C@H](OC(C)=O)[C@H](ONC(=O)/C=C/c2ccc(CNCCc3c(C)[nH]c4ccccc34)cc2)O[C@@H](C)[C@H]1OC(C)=O [(119), (2S,3R,4R,5S,6S)-2-Methyl-6-(((E)-3-(4-(((2-(2-methyl-1H-indol-3-yl)ethyl)amino)methyl)phenyl)acrylamido)oxy)tetrahydro-2H-pyran-3,4,5-triyl triacetate] | – | – | +++ (S.I>10 (+++)) | – | – | – | dose-dependent reduction | dose-dependent reduction | – |
| C[C@@H](Cl)[C@@H]1CN(C(=O)c2cc3cc(OCCN(C)C)ccc3[nH]2)c2cc(O[C@@H]3O[C@H](CO)[C@H](O)[C@H](O)[C@H]3O)c3ccccc3c21 [Compound (77)] | – | – | – | – | – | – | – | – | greater than 4000 fold |

Reference: patent publication US11026963B2, “Senolytic compositions and uses thereof” (Rubedo Life Sciences, Inc., priority 2018, dated 2021)
